Data as given in publication PMC4154712 (Journal of medicinal chemistry, 2014).
One block for each molecule: values may come before it.

Columns and labels:
RD cells = test: Cell cycle analysis in RD cells; format: cell-based; details: lowest concentration (500 nM), 24 h
in vitro = details: human, Caco-2
HepG2 cells = test: Cell cycle analysis in HepG2 cells; format: cell-based, human; details: HepG2, lowest concentration (500 nM), 24 h
PC-3 cells = test: Cell cycle analysis in PC-3 cells; format: cell-based, human; details: PC-3, lowest concentration (500 nM), 24 h
HeLa cells = test: Cell cycle analysis in HeLa cells; format: cell-based, human; details: 24 h; for cell cycle arrest, in words: 20 nM; for cell cycle arrest (G2/M accumulation), in words: 100 nM
[1] = test system: HeLa (human cervical carcinoma) cells; details: read-out: IC50 ± SD HeLA; MTT method; 48 h; ref 10b; cited from earlier work
[2] = test system: HT29 (human colon adenocarcinoma) cells; details: read-out: IC50 ± SD HT-29; MTT method; 48 h; ref 10b; cited from earlier work
[3] = test system: A549 (human lung carcinoma) cells; details: read-out: IC50 ± SD A549; MTT method; 48 h; ref 10b; cited from earlier work
[4] = test system: HCT116 (human colon carcinoma cells); details: read-out: IC50 ± SD HCT116; ref 10b; cited from earlier work
tubulin = test: Tubulin assembly; format: biochemical; details: for IC50: read-out: Tubulin Assembly IC50 ± SD, tubulin at 10 μM
[5] = test system: human liver hepatocellular carcinoma cell line HepG2; test: Growth inhibition of HepG2 cells; format: cell-based; details: HepG2, 48 h, read-out: IC50 ± SD HepG2
[6] = test system: MCF-7 human breast carcinoma cells; test: cells; details: MCF7, 96 h, read-out: MCF-7 IC50 ± SD

Molecule: COc1cc(C(=O)c2ccn(-c3cccc(N)c3)c2)cc(OC)c1OC [Compound 22, (1-(3-Aminophenyl)-1H-pyrrol-3-yl)(3,4,5-trimethoxyphenyl)-methanone]
cell cycle arrest, in words (RD cells): effectively arrested cell cycle progression | Papp (in vitro): > 5 ×10⁻⁶ cm/s | efflux ratio (in vitro): < 2 | cell cycle arrest, in words (HepG2 cells): effectively arrested cell cycle progression | cell cycle arrest, in words (PC-3 cells): effectively arrested cell cycle progression | cell cycle arrest, in words (HeLa cells): as effective as VBL and 2 | cell cycle arrest (G2/M accumulation), in words (HeLa cells): effectively arrested cell cycle progression

Molecule: CC[C@]1(O)C[C@@H]2CN(CCc3c([nH]c4ccccc34)[C@@](C(=O)OC)(c3cc4c(cc3OC)N(C)[C@H]3[C@@](O)(C(=O)OC)[C@H](OC(C)=O)[C@]5(CC)C=CCN6CC[C@]43[C@@H]65)C2)C1 [VBL, vinblastine]
IC50 [1]: 10 ± 0.6 nM | IC50 [2]: 30 ± 0.8 nM | IC50 [3]: 20 ± 2 nM

Molecule: COc1ccc(/C=C\c2cc(OC)c(OC)c(OC)c2)cc1O [Compound 2, combretastatin A-4]
IC50 [4]: 5 ± 0.4 nM | IC50 [3]: > 10000 nM

Molecule: CC[C@]1(O)C[C@H]2CN(CCc3c([nH]c4ccccc34)[C@@](C(=O)OC)(c3cc4c(cc3OC)N(C=O)[C@H]3[C@@](O)(C(=O)OC)[C@H](OC(C)=O)[C@]5(CC)C=CCN6CC[C@]43[C@@H]65)C2)C1 [VCR, vincristine]
IC50 [5]: 177 ± 1.6 nM

Molecule: COc1ccc(-n2ccc(C(=O)c3cc(OC)c(OC)c(OC)c3)c2)cc1[N+](=O)[O-] [Compound 45, (1-(4-Methox y-3-ni tro phenyl)-1H-pyrrol-3-yl)(3,4,5-trimethoxyphenyl)methanone]
IC50 (tubulin): 15 ± 0.07 µM

Molecule: COc1cc(C(=O)c2ccn(-c3cccc(NC(=N)N)c3)c2)cc(OC)c1OC.Cl [Compound 27, 1-(3-(3-(3,4,5-Trimethoxybenzoyl)-1H-pyrrol-1-yl)phenyl)-guanidine Hydrochloride]
cell cycle arrest, in words (RD cells): effectively arrested cell cycle progression | cell cycle arrest, in words (HepG2 cells): effectively arrested cell cycle progression | cell cycle arrest, in words (PC-3 cells): effectively arrested cell cycle progression

Molecule: COc1cc(C(=O)c2ccn(-c3ccccc3[N+](=O)[O-])c2)cc(OC)c1OC [Compound 18, (1-(2-Nitrophenyl)-1H-pyrrol-3-yl)(3,4,5-trimethoxyphenyl)-methanone]
IC50 (tubulin): > 20 µM

Molecule: COc1cc(C(=O)c2cc[nH]c2)cc(OC)c1OC [Compound 9, (1H-Pyrrol-3-yl)(3,4,5-trimethoxyphenyl)methanone]
effect on tubulin polymerization (in words) (tubulin): did not inhibit tubulin assembly

Molecule: COc1cc(C(=O)c2ccn(-c3cccc(C)c3)c2)cc(OC)c1OC [Compound 33, (1-(3-Tolyl)-1H-pyrrol-3-yl)(3,4,5-trimethoxyphenyl)methanone]
IC50 (tubulin): ≤ 1 µM

Molecule: (3-Isopropoxy-4-methoxyphenyl)(1-(3,4,5-trimethoxyphenyl)-1H-pyrrol-3-yl)methanone [Compound 52]
IC50 (tubulin): > 20 µM

Molecule: COc1cc(C(=O)c2ccn(-c3ccccc3)c2)cc(OC)c1OC [Compound 4, (1-Phenyl-1H-pyrrol-3-yl)-(3,4,5-trimethoxyphenyl)methanone]
cell cycle arrest, in words (HeLa cells): only a minimal effect | cell cycle arrest (G2/M accumulation), in words (HeLa cells): effectively arrested cell cycle progression

Molecule: CC(=O)O[C@H]1C(=O)[C@@]2(C)[C@H]([C@H](OC(=O)c3ccccc3)[C@]3(O)C[C@H](OC(=O)[C@H](O)[C@@H](NC(=O)c4ccccc4)c4ccccc4)C(C)=C1C3(C)C)[C@]1(OC(C)=O)CO[C@@H]1C[C@@H]2O [PTX, paclitaxel]
IC50 [5]: 2037 ± 2 nM | IC50 [3]: 7 ± 2 nM

Molecule: COc1cc(C(=O)c2ccn(C)c2)cc(OC)c1OC [Compound 10, (1-Methyl-1H-pyrrol-3-yl)(3,4,5-trimethoxyphenyl)methanone]
effect on tubulin polymerization (in words) (tubulin): did not inhibit tubulin assembly

Molecule: COc1cc(C(=O)c2ccn(-c3ccc(OC(C)C)cc3)c2)cc(OC)c1OC [Compound 40, (1-(4-Isopropoxyphenyl)-1H-pyrrol-3-yl)(3,4,5-trimethoxyphenyl)-methanone]
IC50 (tubulin): > 20 µM

The next lines start with results.

IC50 (tubulin): > 20 µM
Molecule: COc1cc(C(=O)c2ccn(-c3cccc(N4CCCCC4)c3)c2)cc(OC)c1OC [Compound 31, (1-(3-(Piperidin-1-yl)phenyl)-1H-pyrrol-3-yl)(3,4,5-trimethoxyphenyl)methanone]

IC50 (tubulin): ≤ 1 µM
Molecule: COc1cc(C(=O)c2ccn(-c3cccc(NS(C)(=O)=O)c3)c2)cc(OC)c1OC [Compound 28, N-(3-(3-(3,4,5-Trimethoxybenzoyl)-1H-pyrrol-1-yl)phenyl)-methanesulfonamide]

IC50 (tubulin): ≤ 1 µM
Molecule: COc1cc(C(=O)c2ccn(-c3ccccc3F)c2)cc(OC)c1OC [Compound 15, (1-(2-Fluorophenyl)-1H-pyrrol-3-yl)(3,4,5-trimethoxyphenyl)-methanone]

IC50 [6]: 230 ± 60 nM
Molecule: COc1cc(C(=O)c2ccn(-c3cccc([N+](=O)[O-])c3)c2)cc(OC)c1OC [Compound 19, (1-(3-Nitrophenyl)-1H-pyrrol-3-yl)(3,4,5-trimethoxyphenyl)-methanone]

IC50 (tubulin): > 20 µM
Molecule: COc1cc(-n2ccc(C(=O)c3ccccc3)c2)cc(OC)c1OC [Compound 50, Phenyl(1-(3,4,5-trimethoxyphenyl)-1H-pyrrol-3-yl)methanone]

IC50 (tubulin): ≤ 1 µM
Molecule: CNc1cccc(-n2ccc(C(=O)c3cc(OC)c(OC)c(OC)c3)c2)c1 [Compound 24, (1-(3-(Methylamino)phenyl)-1H-pyrrol-3-yl)(3,4,5-trimethoxyphenyl)methanone]

IC50 (tubulin): ≤ 1 µM
Molecule: COc1cc(C(=O)c2ccn(-c3ccc(C)cc3)c2)cc(OC)c1OC [Compound 34, (1-(4-Tolyl)-1H-pyrrol-3-yl)(3,4,5-trimethoxyphenyl)methanone]

IC50 (tubulin): > 20 µM
Molecule: COc1cc(C(=O)c2ccn(-c3cccc(OCc4ccccc4)c3)c2)cc(OC)c1OC [Compound 41, (1-(3-(Benzyloxy)phenyl)-1H-pyrrol-3-yl)(3,4,5-trimethoxyphenyl)methanone]

IC50 (tubulin): > 20 µM
Molecule: COc1cc(C(=O)c2ccn(-c3ccc([N+](=O)[O-])cc3)c2)cc(OC)c1OC [Compound 20, (1-(4-Nitrophenyl)-1H-pyrrol-3-yl)(3,4,5-trimethoxyphenyl)-methanone]

IC50 (tubulin): > 20 µM
Molecule: O=C(c1ccccc1)c1ccn(-c2ccccc2)c1 [Compound 11, Phenyl(1-phenyl-1H-pyrrol-3-yl)methanone]
effect on tubulin polymerization (in words) (tubulin): did not inhibit tubulin assembly

IC50 (tubulin): > 20 µM
Molecule: COc1ccc(C(=O)c2ccn(-c3cc(OC)c(OC)c(OC)c3)c2)cc1OC(C)C [Compound 53, (3-Isopropoxy-4-methoxyphenyl)(1-(3,4,5-trimethoxyphenyl)-1H-pyrrol-3-yl)methanone]
